# From patent publication US20220041641A1, “QUATERNARY AMMONIUM SALTS AS INHIBITORS OF TRIMETHYLAMINE PRODUCTION” (Senda Biosciences, Inc., priority 2018, published 2022)
# Tests used:
# [1] = molecular target: CutC from Proteus mirabilis (Proteus mirabilis, UniProt B4EYG1); assay: Cell-based assay for TMA production from a native producer (P. mirabilis); settings: d9-TMA from 1 mM d9-choline, 5 h, 37° C.; value 10 given when no fit or % TMA remaining at 10 μM higher than 15%; read-out: Average IC50 Whole cell P. mirabilis
# Method in brief: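 Overnight anaerobic cultures of P. mirabilis or C. sporogenes, grown in BHI with 1 mM choline, were diluted and given 1 mM (trimethyl-d9)-choline plus compound at 10 μM final. After 5 h at 37° C., d9-TMA was quantified by LCMS.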
# [2] = assay type: in vitro ADME; settings: 1 µM
# Protocol: This assay was used to assess the stability of a conjugate in a large intestine.
# All experiments were performed in an anaerobic chamber containing 90% nitrogen, 5% hydrogen and 5% carbon dioxide. Colonic material was resuspended as a slurry (15% w/v final concentration) in pre-reduced, anaerobically sterilized dilution blanks (Anaerobe Systems AS-908). The colonic material was then inoculated into 96 well plates containing YCFAC media (Anaerobe Systems AS-680, 6.7 μL slurry into 1 mL total media). A compound was added to each individual well to reach a final analyte concentration of 1 μM, and the material was mixed by pipetting. Each sample was removed after set timepoints (0, 120, 240, 480, 1440, 2880 minutes after initiation of the assay), quenched with acetonitrile containing internal standard, and analyzed by LCMS.
# in vivo = assay: in vivo; parameters: species or system Sprague-Dawley rats; settings: Sprague-Dawley, rat
# [3] = assay type: in vitro ADME; settings: simulated gi fluid, 1 µM, pH 6.7
# Protocol: This assay was used to assess the stability of a conjugate in a small intestine.
# Phosphate buffer was prepared by dissolving 0.42 g of sodium hydroxide pellets and 3.95 g of monobasic sodium phosphate monohydrate and 6.19 g of sodium chloride in ultrapure water (MilliQ®, Millipore Sigma, Darmstadt, Germany). The pH was adjusted to 6.7 using aq. HCl and aq. NaOH, as necessary, and the solution was diluted with ultrapure water to produce 1 L of the pH 6.7 buffer.
# 112 mg FaSSIF powder (Biorelevant™, London, UK) was dissolved in 50 mL of the pH 6.7 buffer. 2 to 3 mL of the resulting solution were then added to 500 mg pancreatin (Millipore Sigma, Darmstadt, Germany). The resulting mixture was agitated by finger tapping the vessel containing the mixture until milky suspension formed. At this time, the remainder of the 50 mL FaSSiF/pH 6.7 buffer solution was added. The resulting suspension was flipped upside down 10 times to produce SIF, which was used fresh.
# (§1) Test compounds were dissolved in DMSO stock to 1 mM. An aliquot of the DMSO stock solution was removed and diluted in the SIF media in 15 mL falcon tubes to produce a mixture with a tested compound concentration of 1 μM. A 1 mL aliquot was immediately removed and diluted once with 1 volume of acetonitrile for T0 timepoint. The mixture was sealed and agitated at 37° C. in an incubator. Aliquots (1 mL) were removed at regular intervals and immediately quenched by the addition of 1 volume of acetonitrile. The resulting samples were analyzed by LCMS to determine degradation rates.
# [4] = test system: enzymatic activity in fecal matter; assay: Inhibition of enzymatic activity in fecal matter; assay type: cell-based; settings: d9-choline 1 mM, 16 hours at 37° C., anaerobic, d9-TMA by LCMS
# Protocol: Inhibition of enzymatic activity in fecal matter was determined by adding a substrate (d9-choline, 1 mM final concentration) and a compound in a range of concentrations in order to determine an IC50. After incubation for a designated 16 hours at 37° C. in anaerobic conditions, samples were be prepared for LCMS analysis, and the amount of d9-TMA produced was determined using LCMS analysis as in the Examples above.
# [5] = assay type: in vitro ADME; settings: simulated gi fluid, 1 µM, pH 1.6
# Protocol: This assay was used to assess the stability of a conjugate in a stomach.
# Medium was prepared by dissolving 2 g of sodium chloride in 0.6 L in ultrapure water (MilliQ®, Millipore Sigma, Darmstadt, Germany). The pH was adjusted to 1.6 with 1N hydrochloric acid, and the volume was then adjusted to 1 L with purified water.
# 60 mg FaSSIF powder (Biorelevant™, London, UK) were dissolved in 500 mL buffer (above). Pepsin was added (0.1 mg/mL) (Millipore Sigma, Darmstadt, Germany), and the solution was stirred. The resulting SGF media were used fresh for each experiment.
# as §1, with “SGF Media” for “SIF media”, “generate” for “produce”, “total” for “mixture with a tested”, “mixed” for “agitated”, “rates in SGF.” for “rates.”
# [6] = Pharmacokinetic study of colon contents and plasma after oral dose of conjugate; assay type: in vivo, male C57B3L/6 mice; settings: mouse, in vivo, po
# Protocol: To confirm that the active agent component of the conjugate is released in the gastrointestinal tract, a pharmacokinetic study was conducted in male C57B3L/6 mice examining conjugate and active agent of concentrations in both the colon contents and plasma after oral dose of conjugate. Conjugate and active agent of were quantified by LCMS at 0 (pre-dose), 0.25, 0.5, 1, 2, 4, 6, 8, 12, and 24 hours post-dose of compound.
# Chain of CutC from Proteus mirabilis (B4EYG1 entry or part of it): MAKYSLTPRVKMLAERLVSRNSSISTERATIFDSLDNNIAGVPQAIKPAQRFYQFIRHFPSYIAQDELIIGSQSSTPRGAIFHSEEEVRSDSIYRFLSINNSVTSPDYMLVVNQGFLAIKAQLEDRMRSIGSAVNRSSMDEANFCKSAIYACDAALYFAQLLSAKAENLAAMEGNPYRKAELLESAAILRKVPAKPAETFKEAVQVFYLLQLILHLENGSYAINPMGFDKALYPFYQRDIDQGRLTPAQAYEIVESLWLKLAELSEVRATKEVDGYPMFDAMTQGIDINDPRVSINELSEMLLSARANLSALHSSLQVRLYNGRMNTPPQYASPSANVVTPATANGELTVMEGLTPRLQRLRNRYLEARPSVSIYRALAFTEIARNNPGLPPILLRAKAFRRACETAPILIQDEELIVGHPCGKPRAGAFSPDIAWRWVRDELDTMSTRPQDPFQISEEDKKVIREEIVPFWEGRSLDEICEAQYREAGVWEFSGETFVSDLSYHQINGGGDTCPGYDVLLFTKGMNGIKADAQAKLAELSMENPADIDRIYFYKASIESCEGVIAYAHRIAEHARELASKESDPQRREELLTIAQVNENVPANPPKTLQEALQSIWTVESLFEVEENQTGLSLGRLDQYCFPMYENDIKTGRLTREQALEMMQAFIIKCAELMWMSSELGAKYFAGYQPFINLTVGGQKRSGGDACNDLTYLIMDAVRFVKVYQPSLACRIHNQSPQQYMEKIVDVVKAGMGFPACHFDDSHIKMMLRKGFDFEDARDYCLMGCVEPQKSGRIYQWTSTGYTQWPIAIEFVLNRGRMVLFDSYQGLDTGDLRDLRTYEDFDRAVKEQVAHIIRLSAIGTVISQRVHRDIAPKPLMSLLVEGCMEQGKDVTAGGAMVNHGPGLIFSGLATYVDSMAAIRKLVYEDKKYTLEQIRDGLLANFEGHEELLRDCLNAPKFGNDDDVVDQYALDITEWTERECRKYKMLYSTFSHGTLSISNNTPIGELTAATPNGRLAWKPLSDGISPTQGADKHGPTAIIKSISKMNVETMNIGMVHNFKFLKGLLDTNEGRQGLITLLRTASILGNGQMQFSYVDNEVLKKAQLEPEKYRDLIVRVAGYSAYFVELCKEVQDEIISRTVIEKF
# Chain of CutC from Proteus mirabilis (B4EYG0 entry or part of it, further chain): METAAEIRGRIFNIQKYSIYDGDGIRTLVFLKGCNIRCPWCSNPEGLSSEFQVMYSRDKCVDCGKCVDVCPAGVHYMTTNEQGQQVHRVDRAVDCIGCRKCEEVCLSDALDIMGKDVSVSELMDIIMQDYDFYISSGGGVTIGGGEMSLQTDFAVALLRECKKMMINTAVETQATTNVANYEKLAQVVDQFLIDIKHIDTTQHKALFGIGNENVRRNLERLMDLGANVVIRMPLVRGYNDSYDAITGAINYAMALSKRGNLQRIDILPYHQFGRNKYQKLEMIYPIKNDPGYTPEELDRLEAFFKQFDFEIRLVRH
smiles,measurement,setting,value
"CC(=O)OC[C@H]1O[C@@H](OCC[N+](C)(C)C2CC2)[C@H](OC(C)=O)[C@@H](OC(C)=O)[C@@H]1OC(C)=O.[I-] [Compound 80, N,N-dimethyl-N-(2-{[(3R,4S,5R,6R)-3,4,5-tris(acetyloxy)-6-[(acetyloxy)methyl]oxan-2-yl]oxy}ethyl)cyclopropanaminium Iodide]",IC50,[1],≥ 10 µM
same,Assay 3- Colonic Material Stability Assay % Remaining at 24 hr,[2],25%
same,Cmax,"in vivo; iv, 1 mg/kg",7.68 µM
same,IV Cmax,"in vivo; iv, 1 mg/kg",0 µM
same,% F,"in vivo; po, 10 mg/kg",1.5%
same,bioavailability,"in vivo; po, 10 mg/kg",0.68%
same,Assay 2- FaSSIF Stability: % Remaining at 4 hr,[3],99.34%
same,IC50,[4],0.38 µM
same,Assay 1- FaSSGF Stability: % Remaining at 1 hr,[5],145.32%
same,Plasma Cmax,[6],Not
